Assay results from US8841271B2, “Oligonucleotide complex compositions and methods of use as gene alteration tools” (The General Hospital Corporation, priority 2004, dated 2014).
Values joined by “and” are separate entries in the source; they are usually repeats but may differ in a detail not shown here. Equal values may be shown once. “Also recorded” adds a separate entry of the source. In the oligonucleotide strings, read from the 5' end, every base follows the letter of its sugar. An asterisk marks phosphorothioate; unmarked linkages are phosphodiester. Other units and linkages are bracketed, terminal groups are in braces. A string of capitals states the bases alone. m = 2'-O-methyl; r = 2'-OH (RNA); {P} = phosphate

Tests used:
DNA genome of Δ508 cells = test: RT-PCR analysis of DNA from subcloned treated Δ508 cells; assay type: cell-based; conditions: subcloned Δ508 cells originally treated with CF4/CF6
Method: (§1) Without being limited by any particular mechanism, the hypothesis was tested as to whether base insertion in the treated Δ508 cells has occurred at the RNA level. It was possible that the repair mechanism was carried out instead of/or in addition to, the DNA level, by way of reverse transcription extending back to the genome. This was tested by RT-PCR analysis of DNA from subcloned Δ508 cells originally treated with CF4/CF6. No evidence was obtained that the restored phenotype was carried back to the inheritable DNA genome level was obtained. Western blot analysis was conducted with antibodies targeted to epitopes upstream and downstream of the Δ508 deletion, respectively.

[1] = system: Δ508CFTR expressing cells; test: Single channel currents in excised inside-out patches (PKA and ATP activation); assay type: cell-based, mouse; conditions: treated Δ508 cells
Method: (§2) Mouse mammary carcinoma cells (c127i) transfected with human epithelial CFTR wild type (WT1) or Δ508 CFTR cells [Cannello et al., (1994), J. Biol. Chem. 269, 11224-11232; Dechecchi et al., (1993) J. Biol. Chem. 268, 11321-11325] were used for these studies. The transfected c127i cells are high level producers of Δ508 CFTR mRNA. Cells were grown and maintained in Dulbecco's medium (DMEM), supplemented with 10% fetal bovine serum and 1% L-glutamine, as previously reported [Verkman, (1990) Am. J. Physiol. 259, C375-C388].
Whole-cell and excised inside-out patches were obtained to assess cAMP-PKA dependent anion currents in treated Δ508 cells. Currents and command voltages were obtained and driven. respectively, with a Dagan 3900 amplifier using a 1 gigaohm headstage. The excised patch-clamp configuration was carried out as previously described [Reisin et al., (1994) J. Biol. Chem. 269, 20584-20591]. Single channel data were obtained between ±100 mV in symmetrical Cl^−. Data were further analyzed as previously described [Reisin et al., (1994) J. Biol. Chem. 269, 20584-20591]. The pipette and bathing solution contained, in mmol/L, either: NaCl 140, MgCl2 1.0, KCl 5, and N-2-hydroxyethylpiperazine N′-2-ethanesulfonic acid (HEPES) 10, at pH 7.4, or MgCl2 70, HEPES 10, pH 7.4. The bathing solution also contained 1.0 mmol/L CaCl2. […]

CFTR protein = test: Western blot with antibodies to epitopes upstream and downstream of the Δ508 deletion; assay type: cell-based, human; conditions: both antibodies same level of protein, no truncated or degraded peptides
Method: as §1

[2] = system: Δ508CFTR expressing cells; test: Whole-cell patch clamp, cAMP-activated whole cell currents; assay type: cell-based, mouse
Method: as §2
(§3) Whole-cell and excised inside-out patches were obtained to assess cAMP-PKA dependent anion currents in treated Δ508 cells. Currents and command voltages were obtained and driven. respectively, with a Dagan 3900 amplifier using a 1 gigaohm headstage. The excised patch-clamp configuration was carried out as previously described [Reisin et al., (1994) J. Biol. Chem. 269, 20584-20591]. Single channel data were obtained between ±100 mV in symmetrical Cl^−. Data were further analyzed as previously described [Reisin et al., (1994) J. Biol. Chem. 269, 20584-20591]. The pipette and bathing solution contained, in mmol/L, either: NaCl 140, MgCl2 1.0, KCl 5, and N-2-hydroxyethylpiperazine N′-2-ethanesulfonic acid (HEPES) 10, at pH 7.4, or MgCl2 70, HEPES 10, pH 7.4. The bathing solution also contained 1.0 mmol/L CaCl2. Whenever indicated, the patch-pipette was filled up to at least one third of its height with either MgATP or TrisATP (100 mmol/L, pH 7.4 adjusted with N-methyl-glucamine) as previously reported [Reisin et al., (1994) J. Biol. Chem. 269, 20584-20591]. Experiments were conducted at room temperature. The cAMP stimulatory mixture contained 8-Br-cAMP, isobutyl-methyl-xanthine (IBMX) and forskolin. Final concentrations were 500 μmol/L, […], and 10 μmol/L, respectively. The catalytic subunit of PKA was used at a final concentration of 20 μg/ml. The Cl^− channel blocker, diphenylamine-2-carboxylate (DPC) was kept in a 100-fold stock solution (20 mmol/L) in 50% water/ethanol. DPC was used at a final concentration of 500 μM.
To restore the normal (wild type) phenotype in cells expressing Δ508CFTR, modified oligonucleotides were constructed and their effect on ion transport was assessed in Δ508 cells treated with these constructs. In a first step, a modified oligodeoxyribonucleotide was synthesized, containing phosphorothioate (PS) and PS plus 2′-O-methyl modifications for the central and flanking segments, respectively. This oligonucleotide was designed to hybridize in Watson-Crick base complementarity to the region of Δ508 mRNA where the PS section would be directly opposite the Δ508 mRNA position, flanked 3′- and 5′- by adjacent nucleotides complementary to the Δ508 mRNA. Accordingly, the PS segment would activate endogenous RNase H, and cleave those bases opposite the PS complementary oligonucleotide (10 μM). The insertion of bases then occurs in a second step.
For the second or insertion step, two complementary single strand oligonucleotides, CF4 and CF6 (Table 1, Scheme 1A) were constructed. The annealed CF4/CF6 duplex (10 μM final concentration) was added to the Δ508 CFTR cells after 2 hours incubation, then washout, in the deletion step. Next, following overnight or up to 72 hour incubation in the second (insertion) step, patch clamp examination was conducted on the treated cells.

Δ508 cells = test: SPQ fluorescence assay of cAMP-stimulated Cl- transport; assay type: cell-based, mouse; conditions: CF4/CF6 treated Δ508 cells compared with WT1 cells; control Δ508 cells no change
Method: as §2
Cyclic-AMP-stimulated CY transport was also followed by fluorescence changes of cells loaded with the CY sensitive dye 6-methoxy-N-(3-sulfopropyl)quinolinium (SPQ) [Verkman, (1990) Am. J. Physiol. 259, C375-C388]. Briefly, cells were grown to partial confluence on glass coverslips. […] SPQ fluorescence was determined under an oil immersion X20 objective in a Nikon E-800 fluorescence microscope (Tokyo, Japan), with an UV filter (96101C UV-2E/C). […] Pictures were analyzed digitally with the NIH Image 1.62b7 software. SPQ cytoplasmic fluorescence values were normalized between intra-nuclear (considered as zero quenching, i.e. low Cl^−), and extracellular background. Data were expressed as percent fluorescence with respect to time zero, the time when cells were placed in an isotonic saline solution. […]

Δ508 CFTR mRNA = test: RT-PCR, subcloning and sequencing of CFTR mRNA; assay type: cell-based, human; conditions: mRNA from CF4/CF6 treated Δ508 cells (10 μM), subcloned RT-PCR products
Method: Total RNA isolated by Trizol® reagent according to the manufacturer's protocol (Invitrogen, CA) from either WT1 or Δ508 cells treated with or without CF6/CF4 annealed duplex oligonucleotides (final concentration of duplex in reaction mixture 10 μM) was used to perform the RT-PCR assay [Kleppe et al., (1971) J. Mol. Biol. 56, 341-361] in two steps by using a ThermoScript RT-PCR system (GIBCO, BRL). Several sets of primers were used (see CF Table 1). In the first step, total RNA (˜2 μg) was incubated for […] at 55° C. with amplification refractory mutation system (ARMS) [Ferric et al., (1992) Am. J. Hum. Genet. 51, 251-262] reverse mutant (M1) and normal (N1) primers (0.5 μg each) separately for the first-strand synthesis. In a second step, after heating at 94° C. for 5 mM, 35 cycles of PCR were carried out on the samples. PCR cycles were performed first by denaturation at 94° C. for 2 mM, annealing at 62° C. for 1 min, and extension at 72° C. for 2 min, followed by a final extension for 10 mM at 72° C. Two ARMS reverse primers (N1 and M1) [Ferric et al., (1992) Am. J. Hum. Genet. 51, 251-262], and a forward (F1) primer were used (Table 1). Similarly RT-PCR was performed with ARMS PS reverse primer (SCFR) and PS forward primer (SNF1, Table 1). RT-PCR products were separated in 3% agarose gel and subjected to automated DNA sequence analysis. […]

CFTR = test: DPC block of cAMP-activated whole cell currents in treated Δ508 cells; assay type: cell-based, human; conditions: DPC 500 μM
Method: as §3, with “The Cl^− channel blocker, diphenylamine-2-carboxylate (DPC) was kept in a 100-fold stock solution (20 mmol/L) in 50% water/ethanol. DPC was used at a final concentration of 500 μM.” left out

[3] = two step treated Δ508 cells, n=24

Row | Compound | restored phenotype carried back to the inheritable DNA genome level (DNA genome of Δ508 cells) | single channel conductance of PKA-activated Cl- channels ([1]; excised inside-out patches) | treated cells displaying PKA and ATP activated Cl- channels ([1]; control Δ508 cells 0/24) | CFTR protein made in the presence of the oligonucleotides (CFTR protein) | time to restoration of CFTR channel function ([2]; CF4/CF6 duplex added to Δ508 cells in tissue culture, patch clamping and SPQ quenching) | whole-cell currents in the absence of cAMP stimulation ([2]; CF4/CF6 treated cells, data not shown) | cAMP-activated whole cell conductance ([2]; CF4/CF6 treated Δ508 cells, FIG. 1, untreated Δ508 cells lacked it) | persistence of restored CFTR function ([2]; after cell replication and washing out of the oligonucleotide after a few days incubation) | phenotypic reversion by patch clamp ([2]; one step: CF4/CF6 duplex added without first oligonucleotide treatment step) | increase of whole cell currents after cAMP stimulation ([2]; two step treated Δ508 cells (PS oligonucleotide 10 μM 2 h, washout, then CF4/CF6 10 μM overnight to 72 h), n=24, p<0.01) | whole cell conductance after cAMP stimulation [2, 3] | whole cell conductance before cAMP stimulation [2, 3] | change in SPQ fluorescence in response to cAMP stimulation (Δ508 cells) | UGU insertion in Δ508 mRNA (percentage of subclones showing TGT insertion) (Δ508 CFTR mRNA) | effect on cAMP-activated currents (CFTR; CF4/CF6 treated Δ508 cells, FIG. 1) | inhibition of cAMP-activated currents (CFTR; two step treated Δ508 cells)
1 | CF4/CF6: 2′-O-methyl RNA/unmodified RNA oligonucleotide duplex of CF4 (SEQ ID NO: 1) and CF6 (SEQ ID NO: 2) (chain 1 mAmUmCmAmUmAmGmGmAmAmAmCmAmCmCmAmAmAmGmAmUmGmAmUmAmUmUmUmUmCmUmUmU; chain 2 {P}-rCrArUrCrUrUrUrGrGrUrG-{P}; listed as Homo sapiens) | No evidence | 10-12 pS and 12 pS | 10/12 | full-length protein was made; also recorded: does not act as an inhibitor of protein synthesis | 8 to 18 h | sporadically showed large, DPC inhibitable whole-cell currents | robust cAMP response | restoration of CFTR function was lost | phenotypic reversion was likewise found | 243% | 2.98±0.68 nS/Cell | 0.87±0.16 nS/Cell | comparably similar change in SPQ fluorescence | 20-30% | – | –
2 | O=C(O)c1ccccc1Nc1ccccc1 [DPC, diphenylamine-2-carboxylate] | – | – | – | – | – | – | – | – | – | – | – | – | – | – | inhibited | > 84%
